Results reported in patent US6653460B1 (priority 1996, dated 2003).

What was measured:
[1] = system: calcium current (carried by barium) in neurohypophysial terminals; assay type: cell-based, rat
[2] = target: T1, class E calcium channels (192C cells) (Homo sapiens, UniProt Q15878); assay type: cell-based
T1 construct: expressed in transfected cells; host or cells: HEK 293 (192C cells)
T1 sequence (Q15878 whole entry): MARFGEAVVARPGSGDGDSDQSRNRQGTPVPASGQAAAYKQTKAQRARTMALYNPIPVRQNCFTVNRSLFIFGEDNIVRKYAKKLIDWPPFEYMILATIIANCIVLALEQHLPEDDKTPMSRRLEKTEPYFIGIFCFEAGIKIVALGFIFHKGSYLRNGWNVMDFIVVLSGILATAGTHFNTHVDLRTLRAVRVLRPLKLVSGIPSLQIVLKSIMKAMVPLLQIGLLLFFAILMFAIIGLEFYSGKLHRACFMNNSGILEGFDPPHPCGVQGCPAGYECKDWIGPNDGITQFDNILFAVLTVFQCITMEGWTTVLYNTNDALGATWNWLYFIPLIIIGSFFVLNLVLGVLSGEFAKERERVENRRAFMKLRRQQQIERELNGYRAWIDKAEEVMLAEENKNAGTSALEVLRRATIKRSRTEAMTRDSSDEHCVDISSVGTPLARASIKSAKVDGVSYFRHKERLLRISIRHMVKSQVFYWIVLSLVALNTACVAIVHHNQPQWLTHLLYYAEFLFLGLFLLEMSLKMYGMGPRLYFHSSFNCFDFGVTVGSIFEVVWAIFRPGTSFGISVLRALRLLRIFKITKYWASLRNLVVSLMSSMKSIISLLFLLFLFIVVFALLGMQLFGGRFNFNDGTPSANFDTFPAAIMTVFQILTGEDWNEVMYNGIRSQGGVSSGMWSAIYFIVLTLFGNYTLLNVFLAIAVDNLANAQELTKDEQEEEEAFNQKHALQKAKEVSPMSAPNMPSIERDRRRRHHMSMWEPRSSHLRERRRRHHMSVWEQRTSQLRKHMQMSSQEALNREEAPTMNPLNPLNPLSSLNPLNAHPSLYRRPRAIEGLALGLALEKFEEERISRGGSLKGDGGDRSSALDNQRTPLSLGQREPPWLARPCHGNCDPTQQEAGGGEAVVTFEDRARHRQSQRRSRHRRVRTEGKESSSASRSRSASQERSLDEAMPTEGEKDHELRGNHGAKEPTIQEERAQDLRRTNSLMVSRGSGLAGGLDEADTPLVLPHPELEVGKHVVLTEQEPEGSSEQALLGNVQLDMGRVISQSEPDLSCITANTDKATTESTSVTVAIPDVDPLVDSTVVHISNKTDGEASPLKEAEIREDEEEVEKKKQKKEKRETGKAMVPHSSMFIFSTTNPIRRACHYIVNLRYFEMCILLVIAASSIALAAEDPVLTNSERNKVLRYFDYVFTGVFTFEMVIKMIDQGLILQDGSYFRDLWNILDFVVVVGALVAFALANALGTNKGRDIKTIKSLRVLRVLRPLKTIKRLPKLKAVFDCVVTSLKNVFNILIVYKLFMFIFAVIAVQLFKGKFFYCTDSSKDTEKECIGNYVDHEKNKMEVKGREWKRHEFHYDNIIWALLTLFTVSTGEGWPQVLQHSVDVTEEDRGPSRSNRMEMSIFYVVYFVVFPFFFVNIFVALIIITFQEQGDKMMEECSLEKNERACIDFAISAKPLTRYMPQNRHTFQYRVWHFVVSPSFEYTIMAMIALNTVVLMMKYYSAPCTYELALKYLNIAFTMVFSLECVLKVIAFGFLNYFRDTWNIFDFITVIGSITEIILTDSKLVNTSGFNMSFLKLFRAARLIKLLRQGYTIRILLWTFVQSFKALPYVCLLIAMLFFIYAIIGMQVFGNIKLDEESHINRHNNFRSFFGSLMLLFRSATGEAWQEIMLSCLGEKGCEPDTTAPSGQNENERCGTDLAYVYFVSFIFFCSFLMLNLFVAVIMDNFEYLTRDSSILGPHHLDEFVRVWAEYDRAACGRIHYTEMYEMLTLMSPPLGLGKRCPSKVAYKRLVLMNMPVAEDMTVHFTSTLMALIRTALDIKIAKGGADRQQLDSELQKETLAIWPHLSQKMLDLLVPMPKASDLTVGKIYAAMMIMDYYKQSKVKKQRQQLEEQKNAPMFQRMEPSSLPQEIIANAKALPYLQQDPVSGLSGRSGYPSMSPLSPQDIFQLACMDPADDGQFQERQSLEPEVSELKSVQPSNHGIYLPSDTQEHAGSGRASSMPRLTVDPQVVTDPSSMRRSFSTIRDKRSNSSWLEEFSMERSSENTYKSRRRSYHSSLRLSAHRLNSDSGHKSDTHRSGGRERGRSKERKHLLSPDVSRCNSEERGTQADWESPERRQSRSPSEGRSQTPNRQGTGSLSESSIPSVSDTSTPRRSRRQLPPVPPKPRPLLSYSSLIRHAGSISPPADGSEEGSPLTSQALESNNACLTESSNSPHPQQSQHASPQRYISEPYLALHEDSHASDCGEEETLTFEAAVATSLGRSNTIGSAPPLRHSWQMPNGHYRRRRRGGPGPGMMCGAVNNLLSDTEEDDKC

CSCC[C@@H]1NC(=O)[C@H](CC(C)C)NC(=O)[C@H](CCCNC(=N)N)NC(=O)[C@H](CO)NC(=O)[C@@H]2CSSC[C@@H]3NC(=O)[C@H](CO)NC(=O)CNC(=O)[C@H]([C@@H](C)O)NC(=O)[C@H](CSSC[C@H](N)C(=O)N[C@@H](CCCCN)C(=O)NCC(=O)N[C@@H](CCCCN)C(=O)NCC(=O)N[C@@H](C)C(=O)N[C@@H](CCCCN)C(=O)N2)NC(=O)[C@H](CSSC[C@@H](C(N)=O)NC(=O)[C@H](CCCCN)NC(=O)CNC(=O)[C@H](CO)NC(=O)[C@H](CCCNC(=N)N)NC3=O)NC(=O)[C@H](CC(=O)O)NC(=O)[C@H](Cc2ccc(O)cc2)NC1=O [SNX-111]
block of current remaining after nicardipine [1]: blocked part but not all of the remaining current | sensitivity of depolarization evoked increase in internal calcium [2]: resistant
